Where “and” joins values, the source holds several entries; their conditions need not be identical. Equal values may be shown once.
Legend:
E. coli strain E124 = experiment: in-vivo subcutaneous synergistic activity with amoxycillin against intraperitoneal infection in mice; conditions: Escherichia coli, sc, amoxycillin alone, read-out: CD50 (the source's name)
E. coli strain E96 = experiment: as above; conditions: Escherichia coli, sc, amoxycillin alone, read-out: CD50 (the source's name)
E.coli JT39 = experiment: standard MIC test (synergistic and antibacterial properties); format: cell-based; conditions: substance alone, unit assumed
Staph Russell = experiment: as above; format: cell-based; conditions: substance alone, in µg/mL (unit assumed)
Kleb E70 = experiment: as above; format: cell-based; conditions: substance alone; Kleb E70 (printed Kleb Eto in the 1st table); unit assumed

Row | SMILES | MIC (E.coli JT39) [µg/mL] | MIC (Staph Russell) | MIC (Kleb E70) [µg/mL] | ED50 (E. coli strain E124) [mg/kg] | ED50 (E. coli strain E96) [mg/kg]
1 | CC1(C)S[C@@H]2[C@H](NC(=O)[C@H](N)c3ccc(O)cc3)C(=O)N2[C@H]1C(=O)O [Amoxycillin] |  |  |  | > 1000 | > 1000
2 | O=C(O)[C@H]1/C(=C/CO)O[C@@H]2CC(=O)N21 [Clavulanic acid] | 16 | 16 and 31.2 |  |  | 

Further lines, with some results ahead:

Row | MIC (E.coli JT39) [µg/mL] | MIC (Staph Russell) | MIC (Kleb E70) [µg/mL] | SMILES | ED50 (E. coli strain E124) [mg/kg] | ED50 (E. coli strain E96) [mg/kg]
3 | 31.2 | 8 | 500 | CC(C)NCC=C1OC2CC(=O)N2C1C(=O)O (stereo not shown) [Example 1, 9-N-Isopropylaminodeoxyclavulanic acid] |  | 
4 | 31.2 | 16 | > 500 | O=C(O)C1C(=CCNC2CCCC2)OC2CC(=O)N21 (stereo not shown) [Example 2, 9-N-Cyclopentylaminodeoxyclavulanic acid] |  | 
5 | 62.5 | 8.0 | 500 | O=C(O)C1C(=CCNC2CCCCC2)OC2CC(=O)N21 (stereo not shown) [Example 3, 9-N-Cyclohexylaminodeoxyclavulanic acid] |  | 

Reference: patent publication EP0021836A1, “Clavulanic acid derivatives, process for their preparation and pharmaceutical compositions containing them” (BEECHAM GROUP PLC, priority 1979, dated 1981)
